Data taken from patent publication US11058680B2, “Combinations of opioid/TLR4 antagonists and acetaminophen for use in the treatment of emotional pain and insomnia” (Allodynic Threapeutics, LLC, priority 2016, dated 2021).

Test system: patient with lower back and leg pain and emotional pain due to separation from a child
Test: Example 12 case study, patient diary
[1] = Ibuprofen 800 mg T.I.D. PRN 2006-2010, Naltrexone 2.25 mg Q.I.D./Clonidine 0.025 mg Q.I.D. 2010-2015, APAP 325 mg Q.I.D. Jun. 29-Jul. 6, 2015, Naltrexone 2.5 mg Q.I.D. to Jul. 8, 2015, Naltrexone 2.25 mg/APAP 325 mg Q.I.D. Jul. 9-Oct. 4, 2015

O=C1CC[C@@]2(O)[C@H]3Cc4ccc(O)c5c4[C@@]2(CCN3CC2CC2)[C@H]1O5 [naltrexone]
API, average pain intensity (0-10 NRS) [1]: 4 | Insomnia (0-10 NRS) [1]: 6.5 | PRSI, Pain Related Sleep Interference (0-10 NRS) [1]: 5.5 | WEP, Worst Emotional Pain (0-10 NRS) [1]: 5.5 | WPI, Worst Pain Intensity (0-10 NRS) [1]: 5 | PGIC (1-7 Likert) (Naltrexone 2.25 mg Q.I.D./Clonidine 0.025 mg Q.I.D. 2010-2015, APAP 325 mg Q.I.D. Jun. 29-Jul. 6, 2015, Naltrexone 2.5 mg Q.I.D. to Jul. 8, 2015, Naltrexone 2.25 mg/APAP 325 mg Q.I.D. Jul. 9-Oct. 4, 2015): 6 | emotional pain due to separation from child (patient report) (naltrexone/clonidine, acetaminophen 325 mg four times daily 5 days, naltrexone alone 12 days, naltrexone 2.25 mg and acetaminophen 325 mg four times daily almost three months): same level of emotional pain
